Laboratory results published in patent US10588967B2, “Chimeric antigen receptor (CAR) signalling system” (UCL BUSINESS PLC, priority 2014, dated 2020).
“Also recorded” adds a separate entry of the source.

Columns and labels:
[1] = test system: T-cells transduced with inducible CAR with modified FKBP12 domains; assay: AP1903-inducible CD19 CAR: signalling of transduced T-cells challenged with CD19 negative or positive targets; type: cell-based
Text: FIG. 11—AP1903 homodimerizer inducible CAR. (a) AP1903 homodimerizer inducible CAR was constructed by using modified FKBP12 domains to constitute the heterodimerization motifs for both the antigen recognition component and the signalling component. The antigen recognition component recognizes CD19. (b) T-cells expressing this CAR along with non-transduced T-cells were stained with anti-Fc which recognizes the CAR spacer. The transduced T-cells expressed the CAR well. (c) Transduced T-cells were next challenged with increasing concentration of CID dimerizer AP1903 and challenged with either CD19 negative or CD19 positive target cells.
AP1903 is a synthetic chemical inducer of dimerization which binds to two mutated FKB12 domains (Clackson et al (1998). Proc. Natl. Acad. Sci. U.S.A 95, 10437-10442). An inducible CAR was developed based on this system, using the modified FKBP12 domains to constitute the heterodimerization domain of both the antigen recognition component and signalling component in the framework as described in Example 1 with the antigen recognition domain and the signalling domain co-expressed with a FMD-2A like sequence (FIG. 11a and SEQ ID No. 24). The FKBP12 domains were codon-wobbled to prevent homologous recombination. T-cells were transduced with this construct and challenged with target cells which were CD19 negative or positive.

[2] = molecular target: FKBP-like binding domains with a F36V mutation (Homo sapiens, UniProt P62942, F37V); conditions: cells engineered to express FKBP-like binding domain fusion proteins; cited from earlier work
Sequence of FKBP-like binding domains with a F36V mutation (P62942 2-108 F37V): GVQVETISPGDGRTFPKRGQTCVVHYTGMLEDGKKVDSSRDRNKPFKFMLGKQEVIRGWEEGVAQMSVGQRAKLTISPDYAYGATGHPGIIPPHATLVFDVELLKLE

[3] = test system: T-cells transduced with split CD19 CAR with EcR and RXR heterodimerization motifs; assay: RSL1-inducible CD19 CAR: IL-2 release of transduced T-cells challenged with CD19 negative or positive targets; type: cell-based; conditions: CD19 negative or CD19 positive target cells; increasing concentration of RSL1
Text: FIG. 10—RSL1 inducible CAR (a) an RSL1 inducible CAR was constructed by using retinoic acid receptor domains and ecodysone receptor domains to constitute the heterodimerization motifs for the antigen recognition component and the signalling component respectively. The antigen recognition component recognizes CD19. (b) T-cells expressing this CAR along with non-transduced T-cells were stained with anti-Fc which recognizes the CAR spacer. The transduced T-cells expressed the CAR well. (c) Transduced T-cells were next challenged with increasing concentration of RSL1 and challenged with either CD19 negative or CD19 positive target cells.
Signaling through the signaling component may be determined by a variety of methods known in the art. […] Functional readouts, such as clonal expansion of T cells, upregulation of activation markers on the cell surface, differentiation into effector cells and induction of cytotoxicity or cytokine secretion may also be utilised. As an illustration, in the present examples the inventors determined levels of interleukin-2 (IL-2) produced by T-cells expressing a receptor component and signalling component of the CAR signalling system according to the present invention upon binding of antigen to the receptor component in the presence of varying concentrations of CID. […]

For `CC[C@H](C(=O)N1CCCC[C@H]1C(=O)O[C@H](CCc1ccc(OC)c(OC)c1)c1cccc(OCC(=O)NCCNC(=O)COc2cccc([C@@H](CCc3ccc(OC)c(OC)c3)OC(=O)[C@@H]3CCCCN3C(=O)[C@@H](CC)c3cc(OC)c(OC)c(OC)c3)c2)c1)c1cc(OC)c(OC)c(OC)c1` [AP1903], the “Response / signalling of AP1903-inducible CAR T-cells” value ([1]; CD19 negative or CD19 positive target cells, increasing concentration of AP1903) is listed as “responded only to CD19 positive targets in the presence of AP1903; also recorded: signal only in the presence of CID”, the “Signalling of AP1903-inducible CAR T-cells at very high dimerizer concentration” value ([1]; very high concentration of dimerizer, CD19 positive targets) is listed as “signalling was inhibited; also recorded: signalling is reduced” and the “Selectivity of dimerization: FKBP-like (F36V) domains versus endogenous FKBP” value [2] is listed as “no interactions involving endogenous FKBP”.

For `CCc1c(OC)cccc1C(=O)NN(C(=O)c1cc(C)cc(C)c1)C(C)(C)C` [RSL1, N-(2-ethyl-3-methoxybenzoyl)-N′-(3,5-dimethylbenzoyl)-N′-tert-butylhydrazine], the “IL-2 release / signalling of RSL1-inducible CAR T-cells” value [3] was “Only CAR T-cells challenged with SupT1 targets in the presence of RSL1 released IL-2; also recorded: signal only in the presence of RSL1”.
